Source: patent US11951094B2, “TLR2 modulator compounds, pharmaceutical compositions and uses thereof” (Axial Therapeutics, Inc., priority 2020, dated 2024)

Biological target: TLR2 (Homo sapiens, UniProt O60603)
Assay: TLR2 agonist screening assay, HEK-Blue TLR2 reporter cell line (NF-kB-driven SEAP, absorbance at 600 nm)
Format: cell-based
Set-up: host or cells: HEK-293 (HEK-Blue TLR2 reporter cell line)
Conditions: HEK-Blue TLR2 reporter cells, agonist mode; average of all runs (Table 4)
From the text: TLRs are a class of cell-surface receptors expressed on many different cell types that recognize conserved structural motifs present on pathogen-derived molecules. TLR2 recognizes bacteria-derived lipopeptides. […] Provided herein is an assay to identify and characterize the binding affinities of novel TLR2 agonists.
The in vitro TLR2 assay consists of a cell line that responds to TLR2 engagement by producing a factor that elicits a color change in the culture media and can be readily measured by various colorimetric detection methods. This assay enables the identification of existing and novel compounds that engage TLR2 and, by virtue of compound dilution, to approximate the binding affinity of these compounds for eliciting a TLR2 signal.
The TLR2 screening assay was developed from the HEK-Blue TLR2 reporter cell line that is commercially available from Invivogen (San Diego, CA). The reporter cell line consists of HEK-293 embryonic kidney cells that have been engineered to express TLR2 and with an NF-kB promoter driving expression of Secreted Alkaline Phosphatase (SEAP). Upon engagement of TLR2, downstream signaling results in activation of NF-kB pathway activation and secretion of SEAR In the presence of the detection reagent in the tissue culture media, SEAP mediates a color change from clear to indigo that is readily assessed by measuring absorbance at 600 nm.
HEK-Blue TLR2 reporter cells are cultured according to manufacturer's specifications until a confluence of 70-90%, at which point the cells are trypsinized, counted, and plated into 96-well plates at approximately 40,000 cells per well. Cells are cultured overnight and the TLR2 assay is performed 16-24 hours post-plating into 96 well plates.
Compounds are diluted from stocks dissolved in DMSO and a 1% DMSO final concentration is maintained in all testing wells.
The assay consists of removing the cell culture media after cells have been cultured overnight and replacing the media with HEK-Blue Detection media with TLR2 agonists at indicated dilution schemes. The Detection media contains a chemical substrate that turns from clear to indigo when acted upon by SEAP. The HEK-Blue cells are then cultured overnight in Detection media with diluted compounds. After overnight culture with agonists, each well of the plate is assayed in a plate reader at 600 nanometer absorbance.
• (1) HEK-Blue TLR2 cells are diluted in complete DME culture medium and plated into 96-well plates at 40,000 cells per well and cultured overnight. • (2) After 16-24 hours in culture, the media is removed and replaced with 200 microliters per well of HEK-Blue Detection media. • (3) TLR2 agonists are diluted 100-fold from DMSO stocks into each well, yielding a final DMSO concentration of 1% in all wells. • (3) Treated cells are cultured overnight and the following day are assayed in plate reader for Absorbance at 600 nanometer.
Following assay measurements utilizing either HEK-Blue detection or cytokine release, all data is analyzed with the GraphPad Prism8 statistical package to determine EC50, binding and activity metrics for the TLR2 modulators.
Data is generated using protocol described in Example 44.

TLR2, sequence (O60603 21-784): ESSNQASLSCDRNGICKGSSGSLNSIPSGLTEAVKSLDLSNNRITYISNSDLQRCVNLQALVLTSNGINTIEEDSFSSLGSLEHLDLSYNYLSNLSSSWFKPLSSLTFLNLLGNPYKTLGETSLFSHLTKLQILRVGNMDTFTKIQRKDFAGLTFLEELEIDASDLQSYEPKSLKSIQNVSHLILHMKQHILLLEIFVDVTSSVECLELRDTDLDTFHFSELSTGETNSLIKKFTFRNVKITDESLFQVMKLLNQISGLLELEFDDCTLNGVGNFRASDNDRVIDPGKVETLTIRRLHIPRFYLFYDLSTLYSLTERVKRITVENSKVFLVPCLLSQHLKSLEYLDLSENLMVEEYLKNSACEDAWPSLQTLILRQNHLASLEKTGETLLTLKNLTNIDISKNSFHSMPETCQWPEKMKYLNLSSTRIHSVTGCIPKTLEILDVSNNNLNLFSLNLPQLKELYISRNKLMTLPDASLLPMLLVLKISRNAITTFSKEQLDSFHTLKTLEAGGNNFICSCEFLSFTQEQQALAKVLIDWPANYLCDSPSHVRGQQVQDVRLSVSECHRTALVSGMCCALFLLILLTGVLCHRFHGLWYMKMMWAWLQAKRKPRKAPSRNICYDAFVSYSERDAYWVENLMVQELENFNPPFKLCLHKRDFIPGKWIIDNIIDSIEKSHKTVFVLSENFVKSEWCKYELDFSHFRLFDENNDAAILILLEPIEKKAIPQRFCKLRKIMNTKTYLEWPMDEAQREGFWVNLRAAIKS

Row | Compound | EC50 [nM]
1 | O=C(N[C@H]1C[C@@H]1c1ccccc1)[C@@H]1CN(C(=O)c2ccc(C(=O)N3C[C@@H](C(=O)N[C@@H]4C[C@H]4c4cccnc4)[C@H](C(=O)N[C@@H]4C[C@H]4c4cccnc4)C3)cc2)C[C@H]1C(=O)N[C@H]1C[C@@H]1c1ccccc1 (single isomer, unassigned) [Compound 095, (3S,4S)-1-(4-((3S,4S)-3,4-bis(((1S*,2R*)-2-(pyridin-3-yl)cyclopropyl)carbamoyl)pyrrolidine-1-carbonyl)benzoyl)-N3,N4-bis((1S,2R)-2-phenylcyclopropyl) pyrrolidine-3,4-dicarboxamide] | 351 to 1000
2 | O=C(N[C@H]1C[C@@H]1c1ccccc1)[C@@H]1CN(C(=O)c2ccc(C(=O)N3C[C@@H](C(=O)N[C@H]4C[C@@H]4c4ccccc4)[C@H](C(=O)N[C@@H]4C[C@H]4c4cccnc4)C3)cc2)C[C@H]1C(=O)N[C@H]1C[C@@H]1c1ccccc1 (single isomer, unassigned) [Compound 097, (3S,4S)—N3-((1S)-2-phenylcyclopropyl)-N4-(2-phenylcyclopropyl)-1-(4-((3S,4S)-3-(((1S,2R)-2-phenylcyclopropyl)carbamoyl)-4-(((1S*,2R*)-2-(pyridin-3-yl)cyclopropyl)carbamoyl)pyrrolidine-1-carbonyl)benzoyl)pyrrolidine-3,4-dicarboxamide] | 51 to 350
3 | CCCCCCCCCCCCCCNC(=O)[C@@H]1CN(C(=O)c2ccc(C(=O)N3C[C@@H](C(=O)N[C@H]4C[C@@H]4c4ccccc4)[C@H](C(=O)N[C@H]4C[C@@H]4c4ccccc4)C3)cc2)C[C@@H]1O (single isomer, unassigned) [Compound 103, (3S,4S)-1-(4-((3R*,4R*)-3-hydroxy-4-(tetradecylcarbamoyl)pyrrolidine-1-carbonyl)benzoyl)-N3,N4-bis((1S,2R)-2-phenylcyclopropyl) pyrrolidine-3,4-dicarboxamide] | 351 to 1000
4 | CCCCCCCCCCCCCCNC(=O)[C@@H]1CN(C(=O)c2ccc(C(=O)N3C[C@@H](C(=O)N[C@H]4C[C@@H]4c4ccccc4)[C@H](C(=O)N[C@H]4C[C@@H]4c4ccccc4)C3)cc2)C[C@H]1O (single isomer, unassigned) [Compound 105, (3S,4S)-1-(4-((3R*,4S*)-3-hydroxy-4-(tetradecylcarbamoyl)pyrrolidine-1-carbonyl)benzoyl)-N3,N4-bis((1S,2R)-2-phenylcyclopropyl)pyrrolidine-3,4-dicarboxamide] | 51 to 350
5 | CCCCCCCCCCCCCCNC(=O)[C@H]1CN(C(=O)c2ccc(C(=O)N3C[C@@H](C(=O)N[C@H]4C[C@@H]4c4ccccc4)[C@H](C(=O)N[C@H]4C[C@@H]4c4ccccc4)C3)cc2)C[C@@H]1O (single isomer, unassigned) [Compound 106, (3S,4S)-1-(4-((3S*,4R*)-3-hydroxy-4-(tetradecylcarbamoyl)pyrrolidine-1-carbonyl)benzoyl)-N3,N4-bis((1S,2R)-2-phenylcyclopropyl)pyrrolidine-3,4-dicarboxamide] | 51 to 350
6 | CCCCCCCCCCCCCCNC(=O)[C@@H]1CN(C(=O)c2ccc(C(=O)N3C[C@@H](C(=O)N[C@H]4C[C@@H]4c4ccccc4)[C@H](C(=O)N[C@H]4C[C@@H]4c4ccccc4)C3)cc2)C[C@@H]1OC (single isomer, unassigned) [Compound 107, (3S,4S)-1-(4-((3R*,4R*)-3-methoxy-4-(tetradecylcarbamoyl)pyrrolidine-1-carbonyl)benzoyl)-N3,N4-bis((1S,2R)-2-phenylcyclopropyl)pyrrolidine-3,4-dicarboxamide] | 351 to 1000
7 | CCCCCCCC[C@@H]1CN(C(=O)c2ccc(C(=O)N3C[C@@H](C(=O)N[C@H]4C[C@@H]4c4ccccc4)[C@H](C(=O)N[C@H]4C[C@@H]4c4ccccc4)C3)cc2)C[C@H]1C(=O)NCCCCCC (single isomer, unassigned) [Compound 111] | 0.1 to 50
8 | CCCCCCCC[C@H]1CN(C(=O)c2ccc(C(=O)N3C[C@@H](C(=O)N[C@H]4C[C@@H]4c4ccccc4)[C@H](C(=O)N[C@H]4C[C@@H]4c4ccccc4)C3)cc2)C[C@@H]1C(=O)NCCCCCC (single isomer, unassigned) [Compound 112] | 51 to 350

Other lines, results leading:

Row | EC50 [nM] | Compound
9 | 51 to 350 | CCCCCCCO[C@@H]1CN(C(=O)c2ccc(C(=O)N3C[C@@H](C(=O)N[C@H]4C[C@@H]4c4ccccc4)[C@H](C(=O)N[C@H]4C[C@@H]4c4ccccc4)C3)cc2)C[C@H]1C(=O)NCCCCCC (single isomer, unassigned) [Compound 114, (3S,4S)-1-(4-((3S*,4R*)-3-(heptyloxy)-4-(hexylcarbamoyl)pyrrolidine-1-carbonyl)benzoyl)-N3,N4-bis((1S,2R)-2-phenylcyclopropyl)pyrrolidine-3,4-dicarboxamide]
10 | > 1000 | CCCCCCCO[C@H]1CN(C(=O)c2ccc(C(=O)N3C[C@@H](C(=O)N[C@H]4C[C@@H]4c4ccccc4)[C@H](C(=O)N[C@H]4C[C@@H]4c4ccccc4)C3)cc2)C[C@H]1C(=O)NCCCCCC (single isomer, unassigned) [Compound 115, (3S,4S)-1-(4-((3R*,4R*)-3-(heptyloxy)-4-(hexylcarbamoyl)pyrrolidine-1-carbonyl)benzoyl)-N3,N4-bis((1S,2R)-2-phenylcyclopropyl)pyrrolidine-3,4-dicarboxamide]
11 | > 1000 | CCCCCCCC(=O)N1CCCN(C(=O)c2ccc(C(=O)N3C[C@@H](C(=O)N[C@H]4C[C@@H]4c4ccccc4)[C@H](C(=O)N[C@H]4C[C@@H]4c4ccccc4)C3)cc2)C[C@H]1C(=O)NCCCCCC (single isomer, unassigned) [Compound 145]
12 | 351 to 1000 | CCCCCCCC(=O)N1CCCN(C(=O)c2ccc(C(=O)N3C[C@@H](C(=O)N[C@H]4C[C@@H]4c4ccccc4)[C@H](C(=O)N[C@H]4C[C@@H]4c4ccccc4)C3)cc2)C[C@@H]1C(=O)NCCCCCC (single isomer, unassigned) [Compound 146]
13 | 351 to 1000 | CCCCCCNC(=O)[C@H](CN[C@@H](c1ccc(C(=O)N2C[C@@H](C(=O)N[C@H]3C[C@@H]3c3ccccc3)[C@H](C(=O)N[C@H]3C[C@@H]3c3ccccc3)C2)cc1)C(F)(F)F)NC(=O)CCCCCC (single isomer, unassigned) [Compound 148]
14 | 51 to 350 | CCCCCCNC(=O)[C@H](CN[C@H](c1ccc(C(=O)N2C[C@@H](C(=O)N[C@H]3C[C@@H]3c3ccccc3)[C@H](C(=O)N[C@H]3C[C@@H]3c3ccccc3)C2)cc1)C(F)(F)F)NC(=O)CCCCCC (single isomer, unassigned) [Compound 149]
15 | 351 to 1000 | CCCCCCCC(=O)N1CCCN(C(=O)c2cccc(C(=O)N3C[C@@H](C(=O)N[C@H]4C[C@@H]4c4ccccc4)[C@H](C(=O)N[C@H]4C[C@@H]4c4ccccc4)C3)c2)C[C@H]1C(=O)NCCCCCC (single isomer, unassigned) [Compound 190]
16 | 351 to 1000 | CCCCCCCC(=O)N1CCCN(C(=O)c2cccc(C(=O)N3C[C@@H](C(=O)N[C@H]4C[C@@H]4c4ccccc4)[C@H](C(=O)N[C@H]4C[C@@H]4c4ccccc4)C3)c2)C[C@@H]1C(=O)NCCCCCC (single isomer, unassigned) [Compound 191]
17 | > 1000 | CCCCCCCC(=O)N1CCCN(S(=O)(=O)c2cccc(C(=O)N3C[C@@H](C(=O)N[C@H]4C[C@@H]4c4ccccc4)[C@H](C(=O)N[C@H]4C[C@@H]4c4ccccc4)C3)c2)C[C@H]1C(=O)NCCCCCC (single isomer, unassigned) [Compound 200]
18 | 351 to 1000 | CCCCCCCC(=O)N1CCCN(S(=O)(=O)c2cccc(C(=O)N3C[C@@H](C(=O)N[C@H]4C[C@@H]4c4ccccc4)[C@H](C(=O)N[C@H]4C[C@@H]4c4ccccc4)C3)c2)C[C@@H]1C(=O)NCCCCCC (single isomer, unassigned) [Compound 201]
19 | 51 to 350 | CCCCCCCC(=O)N1CCCN(S(=O)(=O)c2ccc(C(=O)N3C[C@@H](C(=O)N[C@H]4C[C@@H]4c4ccccc4)[C@H](C(=O)N[C@H]4C[C@@H]4c4ccccc4)C3)cc2)CC1C(=O)NCCCCCC (single isomer, unassigned) [Compound 202, (3S,4S)-1-(4-(((S*)-3-(hexylcarbamoyl)-4-octanoyl-1,4-diazepan-1-yl)sulfonyl)benzoyl)-N3,N4-bis((1S,2R)-2-phenylcyclopropyl)pyrrolidine-3,4-dicarboxamide]
